Measured values from article PMC7923466, “Mining of two novel aldehyde dehydrogenases (DHY-SC-VUT5 and DHY-G-VUT7) from metagenome of hydrocarbon contaminated soils” (BMC Biotechnology, 2021).

How the values were obtained:
DHY-G-VUT7 = system: T1, DHY-G-VUT7; assay: NADH formation at […] nm, Michaelis-Menten fit (GraphPad Prism); format: biochemical, metagenome: hydrocarbon contaminated soil; conditions: 50 mM NAD+, 50 mM Tris-HCl pH 8.0, 30 °C; hexanal 25-200 mM
T1 construct: codon-optimised synthetic gene in pET-30a(+) (NdeI/HindIII), C-terminal 6xHis kept, E. coli BL21(DE3), Ni-NTA purified, ~67 kDa band

DHY-SC-VUT5 = system: T2, DHY-SC-VUT5; assay: as above; format: biochemical, uncultured bacterium; conditions: 50 mM NAD+, 50 mM Tris-HCl pH 8.0, 30 °C; hexanal 25-200 mM
T2 construct: codon-optimised synthetic gene in pET-30a(+) (NdeI/HindIII), C-terminal 6xHis kept, E. coli BL21(DE3), Ni-NTA purified, ~51 kDa band

Km (DHY-G-VUT7): 2.83 mM
Km (DHY-SC-VUT5): 13.8 mM
Structure (SMILES): CCCCCC=O [hexanal]
